Experimental data taken from publication PMC2962730 (Journal of neurochemistry, 2010).
Changes are numbered by the printed parent chain.

What was measured:
[1] = target: T1, hVAChT M320A (Homo sapiens, UniProt Q16572, M320A); experiment: [3H]vesamicol saturation binding; details: pH 7.4
T1 sequence (Q16572 1-532 M320A): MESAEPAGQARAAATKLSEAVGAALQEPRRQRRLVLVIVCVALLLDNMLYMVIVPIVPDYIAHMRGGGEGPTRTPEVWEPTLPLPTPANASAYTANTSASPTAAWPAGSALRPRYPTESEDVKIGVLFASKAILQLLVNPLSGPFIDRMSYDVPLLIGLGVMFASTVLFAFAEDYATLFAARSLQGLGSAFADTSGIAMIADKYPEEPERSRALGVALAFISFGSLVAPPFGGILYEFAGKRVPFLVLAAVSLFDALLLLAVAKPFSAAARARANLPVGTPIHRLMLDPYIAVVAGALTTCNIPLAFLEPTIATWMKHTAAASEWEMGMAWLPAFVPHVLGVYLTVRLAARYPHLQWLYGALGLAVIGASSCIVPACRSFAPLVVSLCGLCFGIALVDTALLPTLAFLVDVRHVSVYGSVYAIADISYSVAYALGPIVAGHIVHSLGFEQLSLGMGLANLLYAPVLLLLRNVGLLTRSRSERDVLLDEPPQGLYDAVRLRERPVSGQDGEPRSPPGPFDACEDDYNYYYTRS

[2] = target: T2, hVAChT K317A (Homo sapiens, UniProt Q16572, K317A); experiment: [3H]vesamicol saturation binding; details: pH 7.4
T2 sequence (Q16572 1-532 K317A): T1 sequence (Q16572 1-532 M320A) with K317A, A320M

[3] = target: T3, hVAChT F392A (Homo sapiens, UniProt Q16572, F392A); experiment: [3H]vesamicol saturation binding; details: pH 7.4
T3 sequence (Q16572 1-532 F392A): T1 sequence (Q16572 1-532 M320A) with A320M, F392A

[4] = target: T4, hVAChT Y60W (Homo sapiens, UniProt Q16572, Y60W); experiment: ACh equilibrium binding by competition against [3H]vesamicol
T4 sequence (Q16572 1-532 Y60W): T1 sequence (Q16572 1-532 M320A) with Y60W, A320M

[5] = target: T3, hVAChT F392A; experiment: [3H]ACh transport; assay type: biochemical
[6] = test system: VAChT C391Y; details: ref Zhu et al. (2001); cited from earlier work
[7] = test system: rat VAChT (rVAChT) W331 mutants; details: mutations of W331 in rVAChT; ref Ojeda et al. 2004; cited from earlier work

Compound	Bmax, maximal specific [3H]vesamicol binding (VAChT expression level) [1] [pmol/mg]	Bmax, maximal specific [3H]vesamicol binding (VAChT expression level) [2] [pmol/mg]	Bmax, maximal specific [3H]vesamicol binding (VAChT expression level) [3] [pmol/mg]	Kd [4] [mM]	tighter binding of ACh than by wild-type ([4]; Y60W hVAChT vs wild-type) [fold]	FHA, fraction of the ACh sites that have high affinity ([4]; Y60W hVAChT, pH 7.4)	Vmax/Bmax, ACh transport normalized to Bmax ([5]; pH 7.4) [min⁻¹]	Km ([5]; read-out: KM, Michaelis-Menten constant for ACh transport, pH 7.4) [µM]	higher KM value for transport [6] [fold]	decrease in ACh affinity (equilibrium) [7] [fold]
O[C@@H]1CCCC[C@H]1N1CCC(c2ccccc2)CC1 (racemic) [vesamicol, ( )-trans-2-(4-phenylpiperidino)cyclohexanol]	62 ± 5	21 ± 1	93 ± 5							
CC(=O)OCC[N+](C)(C)C [ACh, acetylcholine]				4.5 ± 0.1	2	0.86 ± 0.02	11 ± 1	520 ± 110	2.6	≤ 9
